Results from patent publication US5464861A, “2-thioindoles (selenoindoles) and related disulfides (selenides) which inhibit protein tyrosine kinases and which have antitumor properties” (Warner-Lambert, priority 1993, dated 1995).
Read-outs that look alike come from different tables or passages of the source.

What was measured:
[1] = system: Swiss 3T3 mouse fibroblasts; assay: Growth inhibition assay, Swiss 3T3 fibroblasts; assay type: cell-based
Protocol: Swiss 3T3 mouse fibroblasts were maintained in dMEM/F12 media containing 10% fetal calf serum. […] The cells were grown at 37° C. under 5% CO2 for 72 hours and then counted by Coulter counter. The data were expressed as the concentration of inhibitor necessary to decrease the growth rate by 50%.

[2] = target: T1, epidermal growth factor receptor tyrosine kinase (Homo sapiens, UniProt P00533); assay: EGF receptor tyrosine kinase assay (P^32 incorporation in GAT); assay type: biochemical; conditions: for inhibition at 100 µM: EGRF-R, read-out: % Inhibition at 100 μM (EGFR TK)
T1 construct: A native 170,000 epidermal growth factor receptor-kinase complex from shed plasma membrane vesicles; endogenous in cells
Protocol: At the time of assay, membranes were solubilized in 4% Triton X-100 and glycerol. The reaction is carried out in wells of a 96-well microtiter plate in a total volume of […]. Buffer containing 20 mMHepes (pH 7.4), 15 mMMgCl2, mM MnCl2, and 0.02% BSA followed by […] of membrane protein and 150 ng of epidermal growth factor. The plates are incubated for 10 minutes at room temperature to activate the receptor kinase. […] ATP plus or minus compound are added and incubated 10 minutes at room temperature.

[3] = target: T2, human PDGF β receptor intracellular tyrosine kinase domain (Homo sapiens, UniProt P09619); assay: PDGF receptor tyrosine kinase inhibition assay (P^32 incorporation in Glu-Tyr); assay type: biochemical; conditions: for inhibition at 100 µM: PDGF-R, read-out: % Inhibition at 100 μM (PDGFR TK); for IC50: Table 2, PDGF-R, IC50 entries, read-out: IC50 (PDGFR TK)
T2 construct: human PDGF β receptor intracellular tyrosine kinase domain; made in house; host or cells: SF9 insect cells, recombinant baculovirus; cell lysates used
Protocol: Recombinant baculovirus containing human PDGF β receptor intracellular tyrosine kinase domain was used to infect SF9 cells to overexpress the protein, and cell lysates were used for the assay. The ability of the tyrosine kinase to phosphorylate glutamate tyrosine substrate in the presence of P^32 -ATP and inhibitor was measured by counting the incorporation of P^32 in Glu-Tyr in TCAprecipitable material.

[4] = Swiss 3T3, 72 hours, Table 2, read-out: IC50 growth inhibition
[5] = Table 2, EGRF-R, IC50 entries, read-out: IC50 (EGFR TK)
[6] = Swiss-3T3, 72 h, read-out: IC50 growth inhibition

T1 sequence (P00533 25-1210): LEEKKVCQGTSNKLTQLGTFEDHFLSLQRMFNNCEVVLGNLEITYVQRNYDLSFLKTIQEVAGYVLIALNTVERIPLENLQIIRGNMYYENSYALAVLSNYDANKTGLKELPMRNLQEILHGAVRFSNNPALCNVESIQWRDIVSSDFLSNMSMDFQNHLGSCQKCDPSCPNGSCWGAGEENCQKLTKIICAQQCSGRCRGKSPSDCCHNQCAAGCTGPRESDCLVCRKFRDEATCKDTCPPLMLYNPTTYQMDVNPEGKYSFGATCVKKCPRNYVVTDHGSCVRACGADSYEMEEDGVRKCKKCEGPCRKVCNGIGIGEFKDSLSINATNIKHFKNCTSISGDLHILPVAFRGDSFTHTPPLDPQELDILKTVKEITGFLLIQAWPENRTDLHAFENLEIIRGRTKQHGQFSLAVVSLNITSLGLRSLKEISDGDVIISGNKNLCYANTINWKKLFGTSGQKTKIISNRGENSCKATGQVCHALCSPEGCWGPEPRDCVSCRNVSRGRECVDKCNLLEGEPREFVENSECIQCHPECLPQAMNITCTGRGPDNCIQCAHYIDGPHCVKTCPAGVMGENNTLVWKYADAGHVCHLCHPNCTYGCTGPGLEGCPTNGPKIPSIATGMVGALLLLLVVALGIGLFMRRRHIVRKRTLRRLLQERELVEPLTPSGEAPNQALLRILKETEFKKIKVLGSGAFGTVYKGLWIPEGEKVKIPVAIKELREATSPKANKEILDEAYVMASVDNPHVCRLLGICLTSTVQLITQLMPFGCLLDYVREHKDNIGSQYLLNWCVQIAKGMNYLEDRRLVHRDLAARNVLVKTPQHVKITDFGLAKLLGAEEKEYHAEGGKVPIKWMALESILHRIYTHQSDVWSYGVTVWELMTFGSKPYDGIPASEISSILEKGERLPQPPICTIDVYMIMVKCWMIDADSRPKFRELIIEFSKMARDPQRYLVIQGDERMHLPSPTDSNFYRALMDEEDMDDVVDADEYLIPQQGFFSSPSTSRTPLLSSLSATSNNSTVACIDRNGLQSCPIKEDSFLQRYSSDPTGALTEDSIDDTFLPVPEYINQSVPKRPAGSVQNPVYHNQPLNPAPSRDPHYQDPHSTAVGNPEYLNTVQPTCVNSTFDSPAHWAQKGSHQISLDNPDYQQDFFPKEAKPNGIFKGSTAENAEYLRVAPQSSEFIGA
T1 sequence (P01133 971-1023 partner limits assumed): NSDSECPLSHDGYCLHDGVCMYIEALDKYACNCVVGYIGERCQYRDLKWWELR
T2 sequence (P09619 554-1106 limits assumed): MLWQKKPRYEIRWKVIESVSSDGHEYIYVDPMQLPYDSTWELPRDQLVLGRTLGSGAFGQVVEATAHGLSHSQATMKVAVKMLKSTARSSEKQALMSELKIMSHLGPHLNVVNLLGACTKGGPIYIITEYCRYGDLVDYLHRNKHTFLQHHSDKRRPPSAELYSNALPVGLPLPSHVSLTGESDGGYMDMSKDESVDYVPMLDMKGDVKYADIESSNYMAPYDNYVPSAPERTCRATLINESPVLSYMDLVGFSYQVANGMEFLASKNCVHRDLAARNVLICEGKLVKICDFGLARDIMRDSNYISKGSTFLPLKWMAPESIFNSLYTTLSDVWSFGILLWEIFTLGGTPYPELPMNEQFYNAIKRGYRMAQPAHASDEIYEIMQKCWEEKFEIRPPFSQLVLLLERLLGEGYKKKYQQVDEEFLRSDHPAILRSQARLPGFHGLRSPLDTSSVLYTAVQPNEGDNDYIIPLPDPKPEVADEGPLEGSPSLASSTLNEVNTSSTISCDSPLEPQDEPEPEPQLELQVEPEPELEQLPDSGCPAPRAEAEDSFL

Structure (SMILES) | inhibition at 100 µM [2] [%] | IC50 [2, 5] [µM] | inhibition at 100 µM [3] [%] | IC50 [1, 4] [µM] | also measured
COC(=O)CCC1C(=S)Nc2ccccc21 (stereo not drawn) [Compound 9, methyl 3-(2-thioxo-3-indolinyl)propanoate] | 52 | – | – | 16 | –
COC(=O)Cc1c(SSc2[nH]c3ccccc3c2CC(=O)OC)[nH]c2ccccc12 [Compound 27, bis[methylindolyl-3-acetate-(2)]disulfide] | – | 17.8 | – | 2.3 | –
O=C(O)CCc1c(SSc2[nH]c3ccccc3c2CCC(=O)O)[nH]c2ccccc12 [Compound 36, bis[indolyl-3-propanoic acid-(2)]disulfide] | – | 4.8 | – | 59 | –
O=C(O)Cc1c(SSSc2[nH]c3ccccc3c2CC(=O)O)[nH]c2ccccc12 [Compound 30, bis[indolyl-3-acetic acid-(2)]trisulfide] | – | 9.3 | – | 8 | –
CNC(=O)c1c([Se][Se]c2[nH]c3ccccc3c2C(=O)NC)[nH]c2ccccc12 [Compound 133, 2,2'-diselenobis[N-methyl-1H-indole-3-carboxamide]] | – | – | – | – | IC50 [1, 6]: < 5 µM; IC50 ([2]; read-out: IC50 (EGFR TK)): 13 µM
COC(=O)CCc1c(SSc2[nH]c3ccccc3c2CCC(=O)OC)[nH]c2ccccc12 [Compound 39] | – | 20.6 | – | 7.4 | –
COC(=O)Cc1c(SSSc2[nH]c3ccccc3c2CC(=O)OC)[nH]c2ccccc12 [Compound 31, bis[methylindolyl-3-acetate-(2)]trisulfide] | – | 35.5 | – | 1 | –
O=C(O)Cc1c(SSc2[nH]c3ccccc3c2CC(=O)O)[nH]c2ccccc12 [Compound 29, bis[indolyl-3-acetic acid-(2)] disulfide] | – | 8.3 | – | 25 to 100 | –
CCOC(=O)CCC1C(=S)Nc2ccccc21 (stereo not drawn) [Compound 10, ethyl 3-(2-thioxo-3-indolinyl) propanoate] | 10 | – | – | 34 | –
CNC(=O)c1c([Se][Se]c2c(C(=O)NC)c3ccccc3n2C)n(C)c2ccccc12 [Compound 131, 2,2'-diselenobis [N,1-dimethyl-1H -indole-3-carboxamide]] | – | – | – | – | IC50 [1, 6]: 5.5 µM; IC50 [2]: 5.8 µM
COC(=O)CC1C(=S)Nc2ccccc21 (stereo not drawn) [Compound 3, methyl 2-(2-thioxo-3-indolinyl)acetate] | 43 | – | 8.6 | – | –
O=C(O)CCC1C(=S)Nc2ccccc21 (stereo not drawn) [Compound 7, 3-(2-thioxo-3-indolinyl)propanoic acid] | – | 1.3 | – | 94 | –
O=C(CC1C(=S)Nc2ccccc21)NCc1ccccc1 (stereo not drawn) [Compound 6, N-benzyl (2-thioxo-3-indolinyl) acetamide] | – | 25 | 8.5 | – | –
COC(=O)CCCC1C(=S)N(C)c2ccccc21 (stereo not drawn) [Compound 18, methyl 4-(1-methyl-2-thioxo-3-indolyl)butanoate] | 2 | – | 9 | – | –
CONC(=O)CCc1c(SSc2[nH]c3ccccc3c2CCC(=O)NOC)[nH]c2ccccc12 [Compound 52] | – | 68.2 | 18.3 | – | –
O=C(NCc1ccccc1)C(Cc1c(SSc2[nH]c3ccccc3c2CC(NC(=O)C(F)(F)F)C(=O)NCc2ccccc2)[nH]c2ccccc12)NC(=O)C(F)(F)F (racemic) [Compound 61, 2,2'-dithiobis[N-benzyl-α-trifluoroacetylamino-3-(3-indolyl)propanamide]] | 37 | – | 11 | – | –
CCOC(=O)CCc1c(SSc2[nH]c3c(C)cccc3c2CCC(=O)OCC)[nH]c2c(C)cccc12 [Compound 46, bis[ethyl 7-methylindolyl-3-propanoate-(2)] disulfide] | 11.4 | – | – | 2.7 | –
CCN(CC)CCNC(=O)c1c([Se][Se]c2c(C(=O)NCCN(CC)CC)c3ccccc3n2C)n(C)c2ccccc12 [Compound 132, 2,2'-diselenobis [N-[2-(diethylamino)ethyl]-1-methyl-1H-indole-3-carboxamide]] | – | – | – | – | IC50 [1, 6]: 20 µM; IC50 ([2]; read-out: IC50 (EGFR TK)): 4.7 µM
NC(=O)CCc1c(SSc2[nH]c3ccccc3c2CCC(N)=O)[nH]c2ccccc12 [Compound 50] | – | 16 | 62.6 | – | –
O=C(CCc1c(SSc2[nH]c3ccccc3c2CCC(=O)NCc2ccc(C(=O)O)cc2)[nH]c2ccccc12)NCc1ccc(C(=O)O)cc1 [Compound 56, 2,2'-dithiobis[N-(4-carboxybenzyl)-3-(3-indolyl)propanamide]] | – | 7.3 | 44.5 | – | –
CCN(CC)CCNC(=O)c1c([Se][Se]c2[nH]c3ccccc3c2C(=O)NCCN(CC)CC)[nH]c2ccccc12 [Compound 134, 2,2'-diselenobis [N-[2-(diethylamino)ethyl]-1H-indole-3-carboxamide]] | – | – | – | – | IC50 [1, 6]: 8 µM
N#CCc1c(SSc2[nH]c3ccccc3c2CC#N)[nH]c2ccccc12 [Compound 35, 2,2'-dithiobis[3-indolylacetonitrile]] | – | 16.5 | 33.9 | – | –

Second part, led by results:

inhibition at 100 µM [2] [%] | IC50 [2, 5] [µM] | inhibition at 100 µM [3] [%] | Structure (SMILES) | IC50 [1, 4] [µM] | also measured
16.3 | – | – | COC(=O)CCc1c(SSc2c(CCC(=O)OC)c3ccccc3n2C)n(C)c2ccccc12 [Compound 40, 2,2'-dithiobis[methyl 3-(1-methyl-3-indolyl)propanoate]] | 5.2 | –
14 | – | – | COC(=O)CCCc1c(SSc2c(CCCC(=O)OC)c3ccccc3n2C)n(C)c2ccccc12 [Compound 68, bis[methyl 1-methylindolyl-3-butanoate-(2)]disulfide] | 1.8 | –
5 | – | 29 | CN(C(=O)c1c(SSc2c(C(=O)N(C)c3ccccc3)c3ccccc3n2C)n(C)c2ccccc12)c1ccccc1 [Compound 113, 2,2 '-dithiobis [N-methyl-N-phenyl-1-methylindolyl-3-carboxamide]] | – | –
– | 54 | 51 | Cn1c(SSc2c(C(=O)Nc3ccccc3)c3cc(C#N)ccc3n2C)c(C(=O)Nc2ccccc2)c2cc(C#N)ccc21 [Compound 88, 2,2'-dithiobis[N-phenyl-5-cyano-1-methylindolyl-3-carboxamide]] | – | –
9 | – | 1 | Cc1ccc2c(C(=O)Nc3ccccc3)c(SSc3c(C(=O)Nc4ccccc4)c4ccc(C)cc4n3C)n(C)c2c1 [Compound 77, bis [N-phenyl 1,6-dimethylindolyl-3-carboxamide-(2)]disulfide] | – | –
0 | – | 16 | COc1ccc2c(c1)c(C(=O)Nc1ccccc1)c(SSc1c(C(=O)Nc3ccccc3)c3cc(OC)ccc3n1C)n2C [Compound 80, bis[N-phenyl 5-methoxy-1-methylindolyl-3-carboxamide-(2)]disulfide] | – | –
– | 10 | 69 | Cn1c(SSc2c(C(=O)NCC(=O)O)c3ccccc3n2C)c(C(=O)NCC(=O)O)c2ccccc21 [Compound 112, 2,2'-dithiobis[N-carboxymethyl1-methylindolyl-3-carboxamide]] | – | –
55.6 | – | 8.9 | O=C(CCCc1c(SSc2[nH]c3ccccc3c2CCCC(=O)NCc2ccccc2)[nH]c2ccccc12)NCc1ccccc1 [Compound 69] | – | –
4 | – | – | Cn1c(SSc2c(C(=O)Nc3ccncc3)c3ccccc3n2C)c(C(=O)Nc2ccncc2)c2ccccc21 [Compound 116, 2,2'-dithiobis[N-(4-pyridyl)-1-methylindolyl-3-carboxamide]] | – | IC50 [3]: 7.9 µM
– | 42.9 | – | Cn1c(SSc2c(C(=O)NCC(O)CO)c3ccccc3n2C)c(C(=O)NCC(O)CO)c2ccccc21 (stereo not drawn) [Compound 114, 2,2'-dithiobis [N-(2,3-dihydroxypropyl)-1-methylindolyl-3-carboxamide]] | – | IC50 [3]: 7 µM
47 | – | 22 | Cn1c(SSc2c(C(=O)Nc3ccccc3)c3c(Cl)cccc3n2C)c(C(=O)Nc2ccccc2)c2c(Cl)cccc21 [Compound 72, bis[N-phenyl 4-chloro-1-methylindolyl-3-carboxamide-(2)] disulfide] | – | –
– | 47 | 8 | Cn1c(SSc2c(C(=O)Nc3ccccc3C(=O)O)c3ccccc3n2C)c(C(=O)Nc2ccccc2C(=O)O)c2ccccc21 [Compound 109, 2,2'-dithiobis[N-(2'-carboxy)phenyl-1-methylindolyl-3-carboxamide]] | – | –
25 | – | – | Cn1c(SSc2c(C(=O)Nc3cccnc3)c3ccccc3n2C)c(C(=O)Nc2cccnc2)c2ccccc21 [Compound 117, 2,2'-dithiobis [N-(3-pyridyl) 1-methylindolyl-3-carboxamide]] | – | IC50 [3]: 4.2 µM
– | 11.4 | 3 | Cn1c(SSc2c(C(=O)Nc3ccccc3)c3cc(Br)ccc3n2C)c(C(=O)Nc2ccccc2)c2cc(Br)ccc21 [Compound 89, 2,2'-dithiobis[N-phenyl-5-bromo-1-methylindolyl-3-carboxamide]] | – | –
34 | – | 44 | Cn1c(SSc2c(C(=O)Nc3ccccc3)c3cc(F)ccc3n2C)c(C(=O)Nc2ccccc2)c2cc(F)ccc21 [Compound 87, 2,2'-dithiobis [N-phenyl-5-fluoro-1-methylindolyl-3-carboxamide]] | – | –
– | 16.9 | 33 | Cn1c(SSc2c(C(=O)Nc3ccc(C(=O)O)cc3)c3ccccc3n2C)c(C(=O)Nc2ccc(C(=O)O)cc2)c2ccccc21 [Compound 105, 2,2'-dithiobis [N-(4'-carboxy)phenyl-1-methylindolyl-3-carboxamide]] | – | –
